Where two headings read alike, the source gives them in different places. Non-standard residues stand in square brackets, D forms with d. Residues, ends and D or L forms follow the SMILES beside them. *: point of attachment. pY = N[C@@H](Cc1ccc(OP(=O)(O)O)cc1)C(=O)O; Caffeoyl = O=C(/C=C/c1ccc(O)c(O)c1)*
Experiments:
Assay in all cases: biochemical
Format in all cases: binding
FRK = target: T1, FRK (Homo sapiens, UniProt P42685)
T1 construct: the DNA-tagged SH2 domain concentrations used in this study were <0.1 nM; made in house; host or cells: HEK293 (transient transfection; unpurified extract)

FER = target: T2, FER (Homo sapiens, UniProt P16591)
T2 construct: the DNA-tagged SH2 domain concentrations used in this study were <0.1 nM; made in house; host or cells: HEK293 (transient transfection; unpurified extract)

VAV2 = target: T3, VAV2 (Homo sapiens, UniProt P52735); details: for remaining activity at 10 µM: read-out: percent of DMSO vehicle control
T3 construct: made in house; host or cells: HEK293 (transient transfection), unpurified extract
T3 sequence (P52735 1-878): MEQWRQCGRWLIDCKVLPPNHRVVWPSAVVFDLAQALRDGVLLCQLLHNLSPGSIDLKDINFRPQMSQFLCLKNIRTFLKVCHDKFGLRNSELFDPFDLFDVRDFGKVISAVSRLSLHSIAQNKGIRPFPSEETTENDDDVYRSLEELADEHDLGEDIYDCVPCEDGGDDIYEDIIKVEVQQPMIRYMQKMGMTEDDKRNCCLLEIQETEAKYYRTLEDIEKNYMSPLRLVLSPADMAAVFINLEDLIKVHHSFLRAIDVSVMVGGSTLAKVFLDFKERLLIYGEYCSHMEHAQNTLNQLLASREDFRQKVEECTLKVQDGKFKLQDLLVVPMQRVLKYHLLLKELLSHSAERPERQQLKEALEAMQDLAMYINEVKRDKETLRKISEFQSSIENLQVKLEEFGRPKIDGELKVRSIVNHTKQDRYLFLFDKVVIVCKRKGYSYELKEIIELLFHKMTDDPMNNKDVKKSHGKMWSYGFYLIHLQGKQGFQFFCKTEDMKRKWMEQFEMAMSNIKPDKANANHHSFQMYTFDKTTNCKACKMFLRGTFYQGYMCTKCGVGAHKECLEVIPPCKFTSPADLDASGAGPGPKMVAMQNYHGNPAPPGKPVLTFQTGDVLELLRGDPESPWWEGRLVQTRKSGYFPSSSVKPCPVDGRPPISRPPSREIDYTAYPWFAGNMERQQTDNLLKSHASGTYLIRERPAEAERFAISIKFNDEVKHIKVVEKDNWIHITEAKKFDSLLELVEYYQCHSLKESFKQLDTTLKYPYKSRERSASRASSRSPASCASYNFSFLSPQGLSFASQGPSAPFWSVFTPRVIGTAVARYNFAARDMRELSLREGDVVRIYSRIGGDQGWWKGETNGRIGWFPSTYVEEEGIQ

SHB = target: T4, SHB (Homo sapiens, UniProt Q15464); details: for remaining activity at 10 µM: read-out: percent of DMSO vehicle control
T4 construct: made in house; host or cells: HEK293 (transient transfection), unpurified extract

GRB14 = target: T5, GRB14 (Homo sapiens, UniProt Q14449); details: for remaining activity at 10 µM: read-out: percent of DMSO vehicle control
T5 construct: the DNA-tagged SH2 domain concentrations used in this study were <0.1 nM; made in house; host or cells: HEK293 (transient transfection; unpurified extract)
T5 sequence (Q14449 439-535 limits assumed): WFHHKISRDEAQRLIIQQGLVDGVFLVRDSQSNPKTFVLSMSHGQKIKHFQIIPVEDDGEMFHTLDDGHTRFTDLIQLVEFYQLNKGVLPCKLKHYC

FYN = target: T6, FYN (Homo sapiens, UniProt P06241)
T6 construct: the DNA-tagged SH2 domain concentrations used in this study were <0.1 nM; made in house; host or cells: HEK293 (transient transfection; unpurified extract)

FGR = target: T7, FGR (Homo sapiens, UniProt P09769); details: for remaining activity at 10 µM: read-out: percent of DMSO vehicle control
T7 construct: the DNA-tagged SH2 domain concentrations used in this study were <0.1 nM; made in house; host or cells: HEK293 (transient transfection; unpurified extract)

PLCG1(SH2dom.C-term.) = target: T8, PLCG1(SH2dom.C-term.) (Homo sapiens, UniProt P19174); details: for remaining activity at 10 µM: read-out: percent of DMSO vehicle control
T8 construct: SH2dom.C-term. denotes SH2 domain closest to C-terminus of protein; made in house; host or cells: HEK293 (transient transfection, unpurified extract)
T8 sequence (P19174 668-756 limits assumed): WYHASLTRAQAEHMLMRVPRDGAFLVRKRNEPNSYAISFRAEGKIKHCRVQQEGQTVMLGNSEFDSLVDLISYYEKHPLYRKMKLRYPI

PIK3R3(SH2dom.C-term.) = target: T9, PIK3R3(SH2dom.C-term.) (Homo sapiens, UniProt Q92569); details: for remaining activity at 10 µM: read-out: percent of DMSO vehicle control
T9 construct: SH2dom.C-term. denotes SH2 domain closest to C-terminus of protein; made in house; host or cells: HEK293 (transient transfection, unpurified extract)

CSK = target: T10, CSK (Homo sapiens, UniProt P41240); details: primary screen, 10 μM
T10 construct: the DNA-tagged SH2 domain concentrations used in this study were <0.1 nM; made in house; host or cells: HEK293 (transient transfection; unpurified extract)
T10 sequence (P41240 82-171 limits assumed): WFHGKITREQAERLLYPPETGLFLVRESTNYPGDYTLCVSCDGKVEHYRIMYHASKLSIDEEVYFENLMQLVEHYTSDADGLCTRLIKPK

RASA1(SH2dom.C-term.) = target: T11, RASA1(SH2dom.C-term.) (Homo sapiens, UniProt P20936); details: for remaining activity at 10 µM: read-out: percent of DMSO vehicle control
T11 construct: SH2dom.C-term. denotes SH2 domain closest to C-terminus of protein; made in house; host or cells: HEK293 (transient transfection, unpurified extract)
T11 sequence (P20936 351-441 limits assumed): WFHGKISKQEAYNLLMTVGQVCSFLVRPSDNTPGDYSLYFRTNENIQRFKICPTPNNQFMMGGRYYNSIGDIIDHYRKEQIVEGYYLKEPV

PIK3R2(SH2dom.N-term.) = target: T12, PIK3R2(SH2dom.N-term.) (Homo sapiens, UniProt O00459); details: for remaining activity at 10 µM: read-out: percent of DMSO vehicle control
T12 construct: SH2dom.N-term. denotes SH2 domain closest to N-terminus of protein; made in house; host or cells: HEK293 (transient transfection, unpurified extract)

ABL1 = target: T13, ABL1 (Homo sapiens, UniProt P00519)
T13 construct: the DNA-tagged SH2 domain concentrations used in this study were <0.1 nM; made in house; host or cells: HEK293 (transient transfection; unpurified extract)
T13 sequence (P00519 127-217 limits assumed): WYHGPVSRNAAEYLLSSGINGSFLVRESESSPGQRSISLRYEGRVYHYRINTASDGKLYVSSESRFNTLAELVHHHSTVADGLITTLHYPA

[1] = read-out: percent of DMSO vehicle control
[2] = primary screen, 10 μM, read-out: percent of DMSO vehicle control

T1 sequence (P42685 116-208 limits assumed): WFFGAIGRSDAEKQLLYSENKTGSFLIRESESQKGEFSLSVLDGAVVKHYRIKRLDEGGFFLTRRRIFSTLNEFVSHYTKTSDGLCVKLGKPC
T7 sequence (P09769 144-241 limits assumed): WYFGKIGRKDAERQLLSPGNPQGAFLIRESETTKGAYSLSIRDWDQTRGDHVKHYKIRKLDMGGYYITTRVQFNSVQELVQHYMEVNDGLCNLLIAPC
T4 sequence (Q15464 whole entry): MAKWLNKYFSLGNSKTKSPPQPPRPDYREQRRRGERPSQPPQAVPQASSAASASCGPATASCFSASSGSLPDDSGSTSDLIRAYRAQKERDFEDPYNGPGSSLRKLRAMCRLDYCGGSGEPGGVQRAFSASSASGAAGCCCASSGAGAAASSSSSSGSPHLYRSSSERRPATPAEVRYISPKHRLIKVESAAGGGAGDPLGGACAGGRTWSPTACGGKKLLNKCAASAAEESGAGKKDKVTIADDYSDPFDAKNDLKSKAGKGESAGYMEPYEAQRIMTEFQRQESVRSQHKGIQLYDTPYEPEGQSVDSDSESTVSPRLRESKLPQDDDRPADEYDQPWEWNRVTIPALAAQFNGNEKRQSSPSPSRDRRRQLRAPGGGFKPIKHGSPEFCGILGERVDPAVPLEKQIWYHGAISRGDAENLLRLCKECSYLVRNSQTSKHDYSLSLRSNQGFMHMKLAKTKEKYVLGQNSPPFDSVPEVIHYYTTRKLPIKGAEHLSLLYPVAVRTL
T2 sequence (P16591 460-550 limits assumed): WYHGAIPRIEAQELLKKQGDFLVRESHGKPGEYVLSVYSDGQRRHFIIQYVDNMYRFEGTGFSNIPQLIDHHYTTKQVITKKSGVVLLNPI
T6 sequence (P06241 149-246 limits assumed): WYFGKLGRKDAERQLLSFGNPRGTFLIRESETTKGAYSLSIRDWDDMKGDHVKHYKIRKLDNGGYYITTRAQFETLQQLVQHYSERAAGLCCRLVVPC
T12 sequence (O00459 330-425 limits assumed): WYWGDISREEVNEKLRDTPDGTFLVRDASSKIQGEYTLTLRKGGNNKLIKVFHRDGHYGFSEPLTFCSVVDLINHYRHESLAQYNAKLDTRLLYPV

Structure (SMILES)	Kd (FYN) [nM]	Kd (PIK3R3(SH2dom.C-term.)) [nM]	percent of DMSO vehicle control (CSK) [%]	percent of DMSO vehicle control at 10 µM (FRK; [1]) [%]	percent of DMSO vehicle control at 10 µM (FER; [1]) [%]	remaining activity at 10 µM (VAV2) [%]	remaining activity at 10 µM (SHB) [%]	remaining activity at 10 µM (GRB14) [%]	percent of DMSO vehicle control at 10 µM (FYN; [1]) [%]	remaining activity at 10 µM (FGR) [%]	remaining activity at 10 µM (PLCG1(SH2dom.C-term.)) [%]	remaining activity at 10 µM (PIK3R3(SH2dom.C-term.)) [%]	remaining activity at 10 µM (RASA1(SH2dom.C-term.)) [%]	remaining activity at 10 µM (PIK3R2(SH2dom.N-term.)) [%]	Kd (ABL1) [nM]	percent of DMSO control binding at 10 µM (ABL1; [1]) [%]	other results
CC[C@H](C)[C@H](NC(=O)[C@H](CCC(=O)O)NC(=O)[C@H](CCC(=O)O)NC(=O)[C@H](Cc1ccc(OP(=O)(O)O)cc1)NC(C)=O)C(=O)N[C@@H](CCC(=O)O)C(N)=O [Ac-pYEEIE-NH2] (Ac-[pY]EEIE-NH2)	3300	14900	106.4	–	–	–	–	–	–	–	–	–	–	–	–	–	percent of DMSO vehicle control (FRK; primary screen, 10 μM): 82.5%; percent of DMSO vehicle control (FER; primary screen, 10 μM): 37.4%; percent of DMSO vehicle control (VAV2; primary screen, 10 μM): 49.5±2.8%; percent of DMSO vehicle control (SHB; primary screen, 10 μM): 117.6%; percent of DMSO vehicle control (GRB14; primary screen, 10 μM): 56.1±7.2%; percent of DMSO vehicle control (FYN; primary screen, 10 μM): 21.2±2.5%; percent of DMSO vehicle control (FGR; primary screen, 10 μM): 49.9±0.9%; percent of DMSO vehicle control (PLCG1(SH2dom.C-term.); primary screen, 10 μM): 37.9±3.6%; percent of DMSO vehicle control (PIK3R3(SH2dom.C-term.); primary screen, 10 μM): 27.7±0.9%; percent of DMSO vehicle control (RASA1(SH2dom.C-term.); primary screen, 10 μM): 119.3%; percent of DMSO vehicle control (PIK3R2(SH2dom.N-term.); primary screen, 10 μM): 74.1%; percent of DMSO vehicle control (ABL1; primary screen, 10 μM): 106.1%
CC(=O)N[C@@H](Cc1ccc(CP(=O)(O)O)cc1)C(=O)NC1(C(=O)N[C@@H](CC(N)=O)C(=O)NCCCc2c(O)ccc3ccccc23)CCCCC1 [CGP78850]	–	48	119.6±4.5	89.4 ± 19.2	136 ± 7.5	50.4 ± 7.8	97.4 ± 9.4	45.5 ± 1.4	53.7 ± 4.6	43.3 ± 1.3	96.8 ± 4.1	0	131 ± 42.7	141 ± 24.2	560 ± 360	3.1 ± 1.7	–
CC[C@H](C)[C@H](NC(=O)[C@H](CCC(=O)O)NC(=O)[C@H](CCC(=O)O)NC(=O)[C@H](Cc1ccc(OP(=O)(O)O)cc1)NC(=O)/C=C/c1ccc(O)c(O)c1)C(=O)N[C@@H](CCC(=O)O)C(=O)O [Caffeic acid-pYEEIE] (Caffeoyl-[pY]EEIE-OH)	0.53	230 ± 180	103.0±4.8	0.1 ± 0.1	0.8 ± 0.8	0.5 ± 0.1	1.8 ± 0.1	0	0	0	0	0.8 ± 0.1	78 ± 6.4	0	105 ± 17	0	Kd (FRK): 2.2 ± 0.47 nM; Kd (FER): 62 ± 86 nM; Kd (VAV2): 58 ± 40 nM; Kd (SHB): 1200 ± 530 nM; Kd (GRB14): 1200 ± 920 nM; Kd (FGR): 2.7 ± 5.3 nM; Kd (PLCG1(SH2dom.C-term.)): 14 ± 11 nM; Kd (PIK3R2(SH2dom.N-term.)): 180 ± 52 nM
O=C(CCl)Nc1cccc(CNC(=O)[C@H](Cc2ccc(OP(=O)(O)O)cc2)NC(=O)Cc2ccc(F)cc2)c1 [MN551]	–	–	105.0	–	–	–	–	–	–	–	–	–	–	–	–	–	remaining activity at 10 µM (FRK; [2]): 69 ± 8.3%; remaining activity at 10 µM (FER; [2]): 1.1 ± 0.2%; remaining activity at 10 µM (VAV2; primary screen, 10 μM): 77.8 ± 4.8%; remaining activity at 10 µM (SHB; primary screen, 10 μM): 102%; remaining activity at 10 µM (GRB14; primary screen, 10 μM): 62.1 ± 2.4%; remaining activity at 10 µM (FYN; [2]): 83.2 ± 0.4%; remaining activity at 10 µM (FGR; primary screen, 10 μM): 49.8%; remaining activity at 10 µM (PLCG1(SH2dom.C-term.); primary screen, 10 μM): 64.1 ± 4.5%; Kd (PIK3R3(SH2dom.C-term.); dose-response, read-out: KD): 4400 nM; remaining activity at 10 µM (PIK3R3(SH2dom.C-term.); primary screen, 10 μM): 27.3 ± 3.8%; remaining activity at 10 µM (RASA1(SH2dom.C-term.); primary screen, 10 μM): 107%; remaining activity at 10 µM (PIK3R2(SH2dom.N-term.); primary screen, 10 μM): 101%; remaining activity at 10 µM (ABL1; [2]): 35.7 ± 4.3%
